# Laboratory results reported in publication PMC6651381 (Molecules, 2019).
# Where two headings read alike, the source gives them in different places. Marks after values point to notes of the source that are not given here.
# Assays:
# mice [1] = tested on: mice; parameters: method as in PMID 25446027; conditions: i.p., dose protecting 50% of animals against seizures, in mg/kg; cited from earlier work
# mice [2] = conditions: cited from earlier work
# rats [3] = tested on: rats; parameters: method as in PMID 25446027; conditions: p.o., in mg/kg; cited from earlier work
# [4] = tested on: Salmonella typhimurium TA100; format: cell-based; conditions: for Inhib. (%) of mutagenicity: against NQNO 40 ng/mL; for Number of revertants, Mean ± SD (antimutagenicity): test compound plus NQNO 40 ng/mL, NQNO line = mutagen alone
# From the text: (§1) Triplicate plates were set up with each test compound concentration and the entire experiment was repeated twice.
# [5] = tested on: Salmonella typhimurium TA100; format: cell-based; conditions: TA100, 40 ng/mL; for MI (mutagenic index): positive when MI ≥ 2
# Method: The Ames assay was conducted by the preincubation method using S. typhimurium TA100 strain [60]. Each probe was performed in triplicate; 100 µL of the overnight bacterial culture, 50 µL of the investigated compounds at a concentration of 40 ng/mL, and 500 µL of a buffer solution were preincubated for 30 min at 37 °C and then added to 2 mL of the top agar containing histidine/biotin solution. The resulting mixture was poured onto minimal glucose plates. After 48 h incubation, the revertants were counted manually and the results were expressed as mutagenic index (MI) (MI = the number of revertant colonies induced in the tested sample/the number of spontaneous revertants in the negative control). […] DMSO served as the negative (solvent) control.
# [6] = biological target: recombinant human P-gp membranes (Homo sapiens, UniProt P08183); test: P-gp ATPase activity assay (P-gp-Glo); conditions: compounds 10–100 µM, verapamil 100 µM; 5 mM Mg ATP, 37 °C, 45 min
# Sequence of recombinant human P-gp membranes (P08183 whole entry): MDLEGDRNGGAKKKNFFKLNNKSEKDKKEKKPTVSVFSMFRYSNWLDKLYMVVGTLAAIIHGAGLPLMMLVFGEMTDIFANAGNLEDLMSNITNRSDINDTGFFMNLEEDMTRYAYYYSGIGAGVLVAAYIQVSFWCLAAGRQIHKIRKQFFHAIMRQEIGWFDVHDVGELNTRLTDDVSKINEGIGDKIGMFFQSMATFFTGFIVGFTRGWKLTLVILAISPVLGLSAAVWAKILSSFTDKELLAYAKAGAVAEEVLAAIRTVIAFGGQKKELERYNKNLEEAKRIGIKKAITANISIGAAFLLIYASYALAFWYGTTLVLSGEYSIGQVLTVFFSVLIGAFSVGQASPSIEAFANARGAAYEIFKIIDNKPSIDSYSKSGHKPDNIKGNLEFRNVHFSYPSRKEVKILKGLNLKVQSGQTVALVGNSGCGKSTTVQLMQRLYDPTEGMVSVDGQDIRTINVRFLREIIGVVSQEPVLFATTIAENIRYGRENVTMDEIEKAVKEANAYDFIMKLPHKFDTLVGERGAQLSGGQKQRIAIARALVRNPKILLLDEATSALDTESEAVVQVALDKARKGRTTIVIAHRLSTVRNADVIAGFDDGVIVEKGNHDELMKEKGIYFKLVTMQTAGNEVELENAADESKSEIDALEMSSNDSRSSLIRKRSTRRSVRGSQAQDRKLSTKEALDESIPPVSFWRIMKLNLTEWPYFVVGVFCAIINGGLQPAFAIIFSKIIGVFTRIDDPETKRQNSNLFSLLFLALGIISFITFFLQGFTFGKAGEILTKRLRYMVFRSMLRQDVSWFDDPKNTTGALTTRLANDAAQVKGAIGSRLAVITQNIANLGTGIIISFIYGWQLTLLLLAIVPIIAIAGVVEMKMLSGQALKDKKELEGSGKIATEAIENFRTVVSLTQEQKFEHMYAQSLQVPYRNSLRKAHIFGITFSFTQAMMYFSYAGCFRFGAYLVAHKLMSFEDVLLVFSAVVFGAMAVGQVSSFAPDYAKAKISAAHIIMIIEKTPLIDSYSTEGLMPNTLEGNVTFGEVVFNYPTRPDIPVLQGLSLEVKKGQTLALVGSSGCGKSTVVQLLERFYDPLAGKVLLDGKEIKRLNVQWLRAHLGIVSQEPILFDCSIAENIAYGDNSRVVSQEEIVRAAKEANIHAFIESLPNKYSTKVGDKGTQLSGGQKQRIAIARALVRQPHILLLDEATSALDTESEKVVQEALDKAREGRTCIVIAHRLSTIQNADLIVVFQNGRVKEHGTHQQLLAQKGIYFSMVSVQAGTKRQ
# Method: The changes in the ATPase activity of P-gp were determined by using the P-gp-Glo TM assay system (Promega). […] When P-gp ATPase activity is inhibited, ATP accumulates and becomes a substrate for luciferase, with a consequent increase in luminescence. The tested compounds at increasing concentration (10–100 µM) were incubated with 5 mM Mg ATP and 25 µg recombinant human P-gp membranes at 37 °C for 45 min. The luminescence signal was started by adding ATP detection buffer. After incubation at room temperature for 25 min, the samples were read in white 96-well plates on a multi-plate reader (BIOTEK).
# Vibrio harveyi BB7M [7] = format: cell-based; conditions: for Inhib. (%) of mutagenicity: against NQNO 40 ng/mL; for Number of revertants, Mean ± SD (antimutagenicity): test compound plus NQNO 40 ng/mL, NQNO line = mutagen alone
# Method: (§2) In the experiment, overnight cultures of bacterial strains BB7, BB7M, BB7X, and BB7XM were used. Each culture was centrifuged and 10 µL of V. harveyi pellets was placed in 20 mL of BOSS medium. The culture was cultivated at 30 °C until the optical density reached 0.1 at 600 nm (OD600). Then, 10 µL of test compound solution (final concentration of 40 ng/mL) was added to the bacterial culture and incubated. Incubation was continued until OD600 reached 0.3–0.4. Next, 5 × 10^6 bacterial cells were spread onto BOSS agar plates with neomycin. The plates were incubated at 30 °C for 48 h and the number of neomycin-resistant colonies was counted. […] All the experiments were analyzed in three independent repetitions. Finally, MI was calculated.
# as §1
# (§3) The inhibition percentage of mutagenicity was calculated as described above in the Ames antimutagenicity assay procedure.
# Vibrio harveyi BB7 [8] = format: cell-based; conditions: for Inhib. (%) of mutagenicity: against NQNO 40 ng/mL; for Number of revertants, Mean ± SD (antimutagenicity): test compound plus NQNO 40 ng/mL, NQNO line = mutagen alone
# Method: as §2, §1, §3
# Vibrio harveyi BB7X [9] = format: cell-based; conditions: for Inhib. (%) of mutagenicity: against NQNO 40 ng/mL; for Number of revertants, Mean ± SD (antimutagenicity): test compound plus NQNO 40 ng/mL, NQNO line = mutagen alone
# Method: as §2, §1, §3
# Vibrio harveyi BB7XM [10] = format: cell-based; conditions: for Inhib. (%) of mutagenicity: against NQNO 40 ng/mL; for Number of revertants, Mean ± SD (antimutagenicity): test compound plus NQNO 40 ng/mL, NQNO line = mutagen alone
# Method: as §2, §1, §3
# Vibrio harveyi BB7M [11] = format: cell-based; conditions: 40 ng/mL; for MI (mutagenic index): positive when MI ≥ 2
# Method: as §2
# Vibrio harveyi BB7 [12] = format: cell-based; conditions: BB7, 40 ng/mL; for MI (mutagenic index): positive when MI ≥ 2
# Method: as §2
# Vibrio harveyi BB7X [13] = format: cell-based; conditions: 40 ng/mL; for MI (mutagenic index): positive when MI ≥ 2
# Method: as §2
# mice [14] = tested on: mice; parameters: method as in PMID 25446027; conditions: i.p., printed in the ED50(MES) column; cited from earlier work
# Vibrio harveyi BB7XM [15] = test: Vibrio harveyi mutagenicity test, BB7XM; format: cell-based; conditions: 40 ng/mL; for MI (mutagenic index): positive when MI ≥ 2
# Method: as §2
# rats [16] = tested on: rats; parameters: unit not given beside the values; conditions: cited from earlier work
# [17] = tested on: human glioblastoma astrocytoma cell line U373; test: MTT viability test on human glioblastoma cells; format: cell-based; conditions: U373, 10, 25, 50 or 100 µM, 24 h; listed as racemic compound
# Method: Astrocyte cell line (ATCC, CRL-2541), human glioblastoma astrocytoma cell line U373 (ATCC, HTB17-1055), and human hepatoma HepG2 cells (ATCC, HB-8065) were used in the study. The cells were cultured in standard conditions (37 °C, 5% CO2), in EMEM medium with 2 mM glutamine and 1% non-essential amino acids, all supplemented with 10% FBS and antibiotics (penicillin–streptomycin; 10,000 U/mL; final concentration in culture medium was 1%).
# The cells were seeded at a density of 1 × 10^4 in 96-well plates. Following overnight culture, the cells were treated with increasing doses of compounds 1–3 (i.e., 10, 25, 50, or 100 μM) and incubated for 24 h. Next, 10 µL of MTT (3-(4,5-dimethylthiazolyl-2)-2,5-diphenyltetrazolium bromide) reagent (Cayman) was added to each well and after 3 h of incubation (37 °C, 5% CO2) the medium was aspirated, and the formazan produced in the cells appeared as dark crystals at the bottom of the wells. Subsequently, crystal dissolving solution (Cayman) was added to each well and the optical density (OD) was determined at 570 nm on a plate reader (BIOTEK). Doxorubicin (DOX) was used as a positive control. When hepatotoxicity of test compounds was evaluated, the morphology of the cells was also determined using a bright-field inverted microscope (Nikon).
# [18] = mice, i.p., dose producing toxicity in 50% of animals
# [19] = mice, i.p., value printed in the scMet line
Compound,ED50(MES) (mice [1]),ED50(MES) (rats [3]),Inhib. (%) of mutagenicity [4],"Number of revertants, Mean ± SD (antimutagenicity) [4]","Number of revertants, Mean ± SD [5]",MI (mutagenic index) [5],Inhib. (%) of mutagenicity (Vibrio harveyi BB7M [7]),"Number of revertants, Mean ± SD (antimutagenicity) (Vibrio harveyi BB7M [7])",Inhib. (%) of mutagenicity (Vibrio harveyi BB7 [8]),"Number of revertants, Mean ± SD (antimutagenicity) (Vibrio harveyi BB7 [8])",Inhib. (%) of mutagenicity (Vibrio harveyi BB7X [9]),"Number of revertants, Mean ± SD (antimutagenicity) (Vibrio harveyi BB7X [9])",Inhib. (%) of mutagenicity (Vibrio harveyi BB7XM [10]),"Number of revertants, Mean ± SD (antimutagenicity) (Vibrio harveyi BB7XM [10])","Number of revertants, Mean ± SD (Vibrio harveyi BB7M [11])",MI (mutagenic index) (Vibrio harveyi BB7M [11]),"Number of revertants, Mean ± SD (Vibrio harveyi BB7 [12])",MI (mutagenic index) (Vibrio harveyi BB7 [12]),"Number of revertants, Mean ± SD (Vibrio harveyi BB7X [13])",MI (mutagenic index) (Vibrio harveyi BB7X [13]),further results
"NC(=O)N1c2ccccc2C=Cc2ccccc21 [CBZ, carbamazepine]",9.85 ^#,3.57 ^^,,,,,,,,,,,,,,,,,,,"TD50 (mice [2]; mouse, in vivo, ip): 47.8 ^#"
Cc1cc(OCCN[C@@H]2CCCC[C@H]2O)ccc1Cl [Compound 1],38.34 ^#,,(27) %,16 ± 2,9 ± 4,0.6,(37) %,22 ± 2,(32) %,26 ± 3,(31) %,20 ± 4,(35) %,16 ± 2,22 ± 3,1.0,21 ± 3,1.1,16 ± 5,0.9,"effect on P-gp ATPase activity (luminescence) [6]: more potent; ED50 (scMet) (mice [14]): >90.00 ^#scMet; Number of revertants, Mean ± SD (Vibrio harveyi BB7XM [15]): 18 ± 2; MI (mutagenic index) (Vibrio harveyi BB7XM [15]): 1.6; TD50 (mice [2]; [18]): 66.03 ^#; TD50 (mice [2]; [19]): 66.03 ^#scMet"
Cc1cc(OCCN[C@H]2CCCC[C@@H]2O)ccc1Cl [Compound 2],,,(38) %,14 ± 3,3 ± 1,0.2,(41) %,20 ± 4,(38) %,23 ± 4,(30) %,21 ± 3,(40) %,14 ± 4,23 ± 3,1.1,23 ± 5,1.2,10 ± 6,0.6,"Number of revertants, Mean ± SD (Vibrio harveyi BB7XM [15]): 10 ± 3; MI (mutagenic index) (Vibrio harveyi BB7XM [15]): 0.9"
Cc1cc(OCCNC2CCCCC2O)ccc1Cl (stereo not drawn) [Compound 3],25.05 ^#,99.25 ^^,(41) %,13 ± 3,6 ± 3,0.4,(36) %,22 ± 5,(51) %,19 ± 3,(29) %,21 ± 4,(57) %,10 ± 4,27 ± 4,1.7,23 ± 3,1.4,13 ± 4,1.0,"TD50 (rats [16]; rats, p.o.): >250 ^^; ED50 (scMet) (mice [14]): >150 ^#scMet; cytotoxicity against human glioblastoma cells (MTT viability) [17]: less cytotoxic than the two enantiomers; Number of revertants, Mean ± SD (Vibrio harveyi BB7XM [15]): 15 ± 4; MI (mutagenic index) (Vibrio harveyi BB7XM [15]): 1.4; TD50 (mice [2]; [18]): 71.04 ^#; TD50 (mice [2]; [19]): 71.04 ^#scMet"
"O=C1NC(=O)C(c2ccccc2)(c2ccccc2)N1 [PHT, phenytoin]",6.48 ^#,32.2 ^^,,,,,,,,,,,,,,,,,,,"TD50 (rats [16]; rats, p.o.): >500 ^^"
"CCCC(CCC)C(=O)O [VPA, valproate]",287 ^#,395 ^^,,,,,,,,,,,,,,,,,,,"TD50 (rats [16]; rat, in vivo, po): 859 ^^"
